# “Also recorded” adds a separate entry of the source.
# Key:
# [1] = toxicity of DSG to cells in culture; assay type: cell-based; details: up to 72 h; read-out: concentrations toxic to most of the cell types tested
# Method: Cells were treated with up to 100 μg/ml of DSG for up to 72 h. Concentrations of DSG >50 μg/ml were toxic to most of the cell types tested. Since DSG is modified by polyamine oxidase present in fetal bovine serum (Tepper et al., supra.), cells were routinely replenished with fresh medium containing DSG and aminoguanidine every 24 h. As a control in some experiments, C127 cells were also treated with 5 mM sodium butyrate for 24 h. to enhance expression of ΔF508-CFTR (Cheng et al. (1995), supra.). As another control, cells were cultured at 23° C. for 24 to 48 h. to facilitate folding of the mutant ΔF508-CFTR at the ER.
# CFT1 and JME/CF15 are two immortalized human CF airway epitheliavarill lines which contain the ΔF508 variant (Jefferson et al. (1990), Am. J. Physiol. 259: L496-L505; Yankaskas et al., (1993), Am. J. Physiol. 264: C1219-C1230). Cells were treated with up to 100 μg/ml of DSG for up to 72 h. Concentrations of DSG >50 μg/ml were toxic to most of the cell types tested. Since DSG is modified by polyamine oxidase present in fetal bovine serum (Tepper et al., supra.), cells were routinely replenished with fresh medium containing DSG and aminoguanidine every 24 h. As a control in some experiments, cells were cultured at 23° C. for 24 to 48 h. to facilitate folding of the mutant ΔF508-CFTR at the ER. […]
# [2] = test system: ΔF508-CFTR (JME/CF15 cells); assay: SPQ assay, cAMP-stimulated Cl- channel activity, JME/CF15 cells; assay type: cell-based, human
# Method: The cAMP-dependent CFTR Cl^- channel activity was assessed using the halide-sensitive fluorophore 6-methoxy-N-(3-sulfopropyl)-quinolinium (SPQ) essentially as described previously (Cheng et al., (1995), supra.; Marshall et al., supra.). Briefly, the cells were treated with different amounts of DSG for the times specified. At the end of the treatment period, the cells were loaded with SPQ by hypotonic shock for 4 min at room temperature. SPQ fluorescence initially was quenched by incubating the cells for up to 30 min in a NaI buffer (135 mM NaI, 2.4 mM K2 HPO4, 0.6 mM KH2 PO4, 1 mM MgSO4, 1 mM CaSO4, 10 mM dextrose, and 10 mM N-2 hydroxyethylpiperazine-N'2-ethanesulfonic acid, pH 7.4). After measuring the baseline fluorescence (Fo) for 2 min., the NaI solution was replaced with one containing 135 mM NaNO3, and fluorescence was measured for another 16 min. Forskolin (20 μM) and 3-isobutyl-1-methyl-xanthine (IBMX) (100 μM) were added 5 min after the anion substitution to increase intracellular levels of cAMP.
# An increase in halide permeability is reflected by a more rapid increase in SPQ fluorescence. It is the rate of change rather than the absolute change in signal that is the important variable in evaluating anion permeability. Differences in absolute levels reflect quantitative differences between groups in SPQ loading, size of cells, or number of cells studied. The data are presented as means± SE of fluorescence at time t (Ft) minus the baseline fluorescence (Fo, the average fluorescence measured in the presence of I^- for 2 min. before ion substitution) and are representative of results obtained under each condition.
# For each experiment, between 50 to 100 cells were examined on a given day and studies under each condition were repeated on at least two days. […] There was a broad spectrum in the rate of change in SPQ fluorescence observed with responsive cells. Normally, cells were scored as responsive if they generated a minimum of a […] change in the rate of increase in SPQ fluorescence following stimulation with cAMP agonists. […]
# [3] = test system: ΔF508-CFTR (C127-ΔF508-low cells); assay: SPQ halide efflux assay, cAMP-stimulated Cl- channel activity, C127-ΔF508-low cells; assay type: cell-based; details: FIG. 1E
smiles,measurement,setting,value
"N=C(N)NCCCCCCC(=O)NC(O)C(=O)NCCCCNCCCN (stereo not shown) [DSG, deoxyspergualin]",MCC at 72 h,[1],> 50 µg/mL
same,"cAMP-stimulated Cl- channel activity, in words",[2]; 72 h,more robust than that attained when cells were cultured at low temperature; also recorded: a greater number of responsive cells was observed when 10 μg/ml of DSG was used instead of 5 μg/ml; also recorded: no further significant increment in response was noted at concentrations higher than 10 μg/ml; also recorded: increased cAMP-mediated chloride channel activity; also recorded: comparable to that observed when these cells were cultured at a reduced temperature; also recorded: displayed cAMP-responsive Cl^- channel activity
same,percentage of mature CFTR produced from CFTRΔF508 upon exposure to reduced temperatures,[2]; FIG. 4,increases upon exposure to reduced temperatures
same,percentage of mature CFTR produced from CFTR-ΔF508 upon exposure to reduced temperatures,[3],increases upon exposure to reduced temperatures
